Experimental findings from ChEMBL document CHEMBL5465560, “Selectivity Literature for EUbOPEN Chemogenomic Library” (2024) are described below.

The target in assay [1] is T1, Serine/threonine-protein kinase Nek3 (Homo sapiens) (UniProt P51956).
T1 sequence (whole entry): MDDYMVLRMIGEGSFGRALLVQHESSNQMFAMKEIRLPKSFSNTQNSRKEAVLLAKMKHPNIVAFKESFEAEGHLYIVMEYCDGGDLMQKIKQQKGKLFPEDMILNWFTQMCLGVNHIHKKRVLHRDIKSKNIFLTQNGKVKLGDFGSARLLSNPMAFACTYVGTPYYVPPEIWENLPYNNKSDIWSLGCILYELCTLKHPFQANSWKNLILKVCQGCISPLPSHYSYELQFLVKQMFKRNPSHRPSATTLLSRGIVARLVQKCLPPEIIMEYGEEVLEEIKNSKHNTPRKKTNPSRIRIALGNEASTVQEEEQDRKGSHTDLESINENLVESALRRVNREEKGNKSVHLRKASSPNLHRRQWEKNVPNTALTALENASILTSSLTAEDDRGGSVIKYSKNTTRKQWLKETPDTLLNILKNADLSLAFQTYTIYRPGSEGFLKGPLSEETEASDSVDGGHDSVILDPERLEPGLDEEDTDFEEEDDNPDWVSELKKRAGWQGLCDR
The settings on record: at 10 µM.

Assay [2] addresses Serine/threonine-protein kinase mTOR (Homo sapiens, UniProt P42345). The settings on record: at 10 µM.
Assay [3] addresses T2, Inhibitor of nuclear factor kappa-B kinase subunit epsilon (Homo sapiens) (UniProt Q14164).
T2 sequence (whole entry): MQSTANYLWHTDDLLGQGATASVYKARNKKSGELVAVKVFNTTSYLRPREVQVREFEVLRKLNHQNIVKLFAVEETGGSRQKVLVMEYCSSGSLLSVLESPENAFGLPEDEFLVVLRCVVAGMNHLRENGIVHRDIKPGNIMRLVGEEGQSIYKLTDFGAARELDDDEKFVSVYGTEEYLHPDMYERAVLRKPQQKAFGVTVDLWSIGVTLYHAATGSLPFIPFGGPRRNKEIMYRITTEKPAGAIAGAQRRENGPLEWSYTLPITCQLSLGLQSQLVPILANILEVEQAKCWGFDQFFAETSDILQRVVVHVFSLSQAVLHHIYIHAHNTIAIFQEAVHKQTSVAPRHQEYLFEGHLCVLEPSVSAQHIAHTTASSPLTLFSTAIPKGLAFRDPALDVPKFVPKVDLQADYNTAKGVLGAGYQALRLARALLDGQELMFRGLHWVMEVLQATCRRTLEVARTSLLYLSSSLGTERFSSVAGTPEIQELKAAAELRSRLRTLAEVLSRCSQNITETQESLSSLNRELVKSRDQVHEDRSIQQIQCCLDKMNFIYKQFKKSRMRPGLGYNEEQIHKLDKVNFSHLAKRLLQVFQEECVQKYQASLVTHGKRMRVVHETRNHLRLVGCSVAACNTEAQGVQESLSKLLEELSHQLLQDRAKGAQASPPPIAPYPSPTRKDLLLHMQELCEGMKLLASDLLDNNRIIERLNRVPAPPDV
As to the kind of experiment: Selectivity interaction (KinomeScan (DiscoverX)) EUB0000045b IKBKE.

In assay [4] the target is Serine/threonine-protein kinase PAK 4 (Homo sapiens, UniProt O96013). As to the kind of experiment: Selectivity interaction (KinomeScan (DiscoverX)) EUB0000045b PAK4.
Serine/threonine-protein kinase PAK 4, sequence (O96013 whole entry, looked up): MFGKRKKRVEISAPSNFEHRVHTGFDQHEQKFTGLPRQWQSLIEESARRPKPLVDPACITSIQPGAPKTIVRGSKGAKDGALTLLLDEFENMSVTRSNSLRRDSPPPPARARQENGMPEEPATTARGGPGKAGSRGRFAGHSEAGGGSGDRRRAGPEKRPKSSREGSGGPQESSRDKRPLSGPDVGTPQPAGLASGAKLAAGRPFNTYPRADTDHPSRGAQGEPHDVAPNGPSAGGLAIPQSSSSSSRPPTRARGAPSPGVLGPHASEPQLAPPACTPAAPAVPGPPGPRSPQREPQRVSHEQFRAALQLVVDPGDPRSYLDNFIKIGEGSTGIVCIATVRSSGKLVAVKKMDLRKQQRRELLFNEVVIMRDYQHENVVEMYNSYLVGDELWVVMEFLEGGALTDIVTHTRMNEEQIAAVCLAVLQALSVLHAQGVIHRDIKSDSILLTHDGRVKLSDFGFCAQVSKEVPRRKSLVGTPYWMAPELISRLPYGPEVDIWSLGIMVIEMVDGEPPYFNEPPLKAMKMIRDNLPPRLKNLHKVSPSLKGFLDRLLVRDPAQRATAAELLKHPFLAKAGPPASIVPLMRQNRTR
Assay [5] addresses T3, Histone-arginine methyltransferase CARM1 (Homo sapiens) (UniProt Q86X55).
T3 sequence (whole entry): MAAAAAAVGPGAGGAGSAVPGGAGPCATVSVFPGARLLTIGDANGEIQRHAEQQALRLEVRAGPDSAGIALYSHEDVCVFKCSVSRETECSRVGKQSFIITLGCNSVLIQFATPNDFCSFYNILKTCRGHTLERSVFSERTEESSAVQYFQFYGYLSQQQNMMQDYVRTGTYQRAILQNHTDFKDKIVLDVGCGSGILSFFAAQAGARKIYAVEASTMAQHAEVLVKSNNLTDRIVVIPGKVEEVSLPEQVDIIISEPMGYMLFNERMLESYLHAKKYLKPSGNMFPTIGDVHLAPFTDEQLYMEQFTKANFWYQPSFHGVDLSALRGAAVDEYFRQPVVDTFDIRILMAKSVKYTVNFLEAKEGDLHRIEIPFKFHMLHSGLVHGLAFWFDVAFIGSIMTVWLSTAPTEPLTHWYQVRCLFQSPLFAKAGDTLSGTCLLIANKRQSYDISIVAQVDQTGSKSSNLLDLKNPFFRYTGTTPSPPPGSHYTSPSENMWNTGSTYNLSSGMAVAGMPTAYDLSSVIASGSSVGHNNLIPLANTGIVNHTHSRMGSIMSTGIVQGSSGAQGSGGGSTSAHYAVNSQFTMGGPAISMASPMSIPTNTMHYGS
The settings on record: KMS-26, at 3 µM.

Assay [6] deals with T4, Serine/threonine-protein kinase ULK3 (Homo sapiens) (UniProt Q6PHR2).
T4 sequence (whole entry): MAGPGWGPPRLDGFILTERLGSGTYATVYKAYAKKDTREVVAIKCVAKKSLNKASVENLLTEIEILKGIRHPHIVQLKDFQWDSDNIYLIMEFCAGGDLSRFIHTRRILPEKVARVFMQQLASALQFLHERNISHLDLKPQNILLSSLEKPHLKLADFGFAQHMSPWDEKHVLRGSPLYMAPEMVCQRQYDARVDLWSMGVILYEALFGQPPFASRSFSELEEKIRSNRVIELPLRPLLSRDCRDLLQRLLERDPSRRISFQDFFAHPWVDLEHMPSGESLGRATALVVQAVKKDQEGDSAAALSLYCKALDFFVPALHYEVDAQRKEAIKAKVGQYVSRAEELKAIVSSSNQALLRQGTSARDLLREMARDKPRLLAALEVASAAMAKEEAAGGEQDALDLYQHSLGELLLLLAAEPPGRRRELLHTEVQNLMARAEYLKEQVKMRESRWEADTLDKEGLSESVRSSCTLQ
Kind of assay: Selectivity interaction (ActivX KiNativ screen (kinase selectivity in THP-1 cell lysates)) EUB0000639a ULK3. The settings on record: lysate. Type of assay: subcellular.

Assay [7] addresses BMP-2-inducible protein kinase (Homo sapiens) (UniProt Q9NSY1). As to the kind of experiment: Selectivity interaction (KinomeScan (DiscoverX)) EUB0001619a BMP2K. The settings on record: at 1 µM.
Assay [8] addresses Interferon-induced, double-stranded RNA-activated protein kinase (Homo sapiens) (UniProt P19525). Kind of assay: Selectivity interaction (KinomeScan (DiscoverX)) EUB0001619a EIF2AK2. The settings on record: at 1 µM.
Assay [9] concerns the target Glycogen synthase kinase-3 beta (Homo sapiens, UniProt P49841). Kind of assay: Selectivity interaction (Enzymatic assay) EUB0001199aCl GSK3B.
For assay [10], the target named is Tyrosine-protein kinase Lck (Homo sapiens, UniProt P06239). As to the kind of experiment: Selectivity interaction (KinomeScan (DiscoverX)) EUB0000618a LCK. The settings on record: at 10 µM.
Tyrosine-protein kinase Lck, sequence (P06239 2-509 limits assumed): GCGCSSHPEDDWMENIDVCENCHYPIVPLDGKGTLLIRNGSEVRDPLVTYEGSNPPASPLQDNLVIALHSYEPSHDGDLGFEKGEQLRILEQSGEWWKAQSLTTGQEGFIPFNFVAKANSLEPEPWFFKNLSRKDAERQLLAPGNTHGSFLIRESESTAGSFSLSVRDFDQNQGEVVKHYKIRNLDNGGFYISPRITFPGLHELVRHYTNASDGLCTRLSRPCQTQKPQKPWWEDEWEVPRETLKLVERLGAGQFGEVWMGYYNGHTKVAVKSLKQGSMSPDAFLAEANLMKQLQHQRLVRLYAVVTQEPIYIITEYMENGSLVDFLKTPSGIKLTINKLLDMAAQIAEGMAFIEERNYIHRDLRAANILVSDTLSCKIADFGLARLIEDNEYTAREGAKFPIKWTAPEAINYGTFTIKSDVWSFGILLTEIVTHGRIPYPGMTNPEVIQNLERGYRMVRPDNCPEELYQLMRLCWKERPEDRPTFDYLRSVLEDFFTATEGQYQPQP

pIC50: −log10 of the molar value.

Glycogen synthase kinase-3 beta, sequence (P49841 whole entry): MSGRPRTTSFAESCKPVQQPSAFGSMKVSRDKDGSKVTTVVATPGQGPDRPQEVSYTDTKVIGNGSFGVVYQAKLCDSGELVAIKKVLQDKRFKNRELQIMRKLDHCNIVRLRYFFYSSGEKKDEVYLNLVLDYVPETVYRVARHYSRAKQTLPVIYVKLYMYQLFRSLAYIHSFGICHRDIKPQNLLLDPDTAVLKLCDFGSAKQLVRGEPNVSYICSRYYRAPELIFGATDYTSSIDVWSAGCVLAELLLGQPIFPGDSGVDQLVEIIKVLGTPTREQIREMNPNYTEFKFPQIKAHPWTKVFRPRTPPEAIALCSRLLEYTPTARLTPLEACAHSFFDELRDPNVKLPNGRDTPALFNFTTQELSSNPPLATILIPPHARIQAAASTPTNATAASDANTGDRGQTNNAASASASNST
Interferon-induced, double-stranded RNA-activated protein kinase (Homo sapiens), sequence (P19525 whole entry): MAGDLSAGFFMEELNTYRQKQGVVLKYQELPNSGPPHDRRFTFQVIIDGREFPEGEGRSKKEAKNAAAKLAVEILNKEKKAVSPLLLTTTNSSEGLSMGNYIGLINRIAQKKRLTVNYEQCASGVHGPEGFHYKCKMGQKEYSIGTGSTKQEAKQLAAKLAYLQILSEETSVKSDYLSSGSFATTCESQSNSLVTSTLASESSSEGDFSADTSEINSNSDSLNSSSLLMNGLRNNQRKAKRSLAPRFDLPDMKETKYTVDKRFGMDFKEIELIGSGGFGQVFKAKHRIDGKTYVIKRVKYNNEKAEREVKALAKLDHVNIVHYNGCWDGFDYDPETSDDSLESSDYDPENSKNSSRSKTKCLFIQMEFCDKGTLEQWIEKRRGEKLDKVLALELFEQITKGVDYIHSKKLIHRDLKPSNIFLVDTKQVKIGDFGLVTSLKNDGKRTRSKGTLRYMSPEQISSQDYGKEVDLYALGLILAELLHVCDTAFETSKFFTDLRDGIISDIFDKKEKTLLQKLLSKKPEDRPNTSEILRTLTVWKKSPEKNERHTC
BMP-2-inducible protein kinase (Homo sapiens), sequence (Q9NSY1 whole entry, looked up): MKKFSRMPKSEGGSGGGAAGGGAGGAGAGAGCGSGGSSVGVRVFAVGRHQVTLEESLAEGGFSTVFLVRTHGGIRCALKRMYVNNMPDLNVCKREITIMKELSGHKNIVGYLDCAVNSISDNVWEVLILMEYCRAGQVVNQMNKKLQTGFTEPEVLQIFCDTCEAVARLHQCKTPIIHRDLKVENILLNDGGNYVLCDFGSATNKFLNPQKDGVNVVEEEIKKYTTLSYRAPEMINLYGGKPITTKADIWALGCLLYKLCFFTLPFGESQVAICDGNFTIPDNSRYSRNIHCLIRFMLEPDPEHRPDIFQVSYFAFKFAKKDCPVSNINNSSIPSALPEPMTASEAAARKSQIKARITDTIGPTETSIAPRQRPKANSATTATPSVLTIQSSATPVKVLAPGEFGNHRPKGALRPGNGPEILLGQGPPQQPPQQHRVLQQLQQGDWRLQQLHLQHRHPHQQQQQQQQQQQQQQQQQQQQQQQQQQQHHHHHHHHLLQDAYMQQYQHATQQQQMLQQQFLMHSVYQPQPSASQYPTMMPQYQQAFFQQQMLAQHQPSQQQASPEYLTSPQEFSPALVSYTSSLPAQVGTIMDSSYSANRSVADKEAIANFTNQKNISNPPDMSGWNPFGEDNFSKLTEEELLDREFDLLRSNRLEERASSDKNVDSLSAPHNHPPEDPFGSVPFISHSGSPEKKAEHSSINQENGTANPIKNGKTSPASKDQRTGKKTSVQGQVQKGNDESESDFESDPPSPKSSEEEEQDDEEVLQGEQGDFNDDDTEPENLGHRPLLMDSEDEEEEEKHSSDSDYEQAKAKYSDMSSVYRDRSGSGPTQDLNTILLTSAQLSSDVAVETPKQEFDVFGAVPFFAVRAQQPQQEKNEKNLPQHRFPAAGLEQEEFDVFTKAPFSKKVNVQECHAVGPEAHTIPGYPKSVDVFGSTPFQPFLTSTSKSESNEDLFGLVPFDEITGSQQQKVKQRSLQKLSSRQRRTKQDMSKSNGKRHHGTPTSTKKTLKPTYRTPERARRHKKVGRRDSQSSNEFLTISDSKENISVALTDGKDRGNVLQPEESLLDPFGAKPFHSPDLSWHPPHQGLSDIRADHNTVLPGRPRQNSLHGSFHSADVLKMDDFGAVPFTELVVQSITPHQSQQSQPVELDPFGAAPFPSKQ

In assay [1], `Cc1cc([C@@H](C)Nc2ccccc2C(=O)O)c2nc(N3CCOCC3)cc(=O)n2c1` [AZD-6482] displayed a % of control of 100%.
Regarding `CCC(=O)N1CCN(c2ccc(-n3c(=O)ccc4cnc5ccc(-c6cnc7ccccc7c6)cc5c43)cc2C(F)(F)F)CC1`, in [2], the % of control stood at 0%.
Regarding `C=CC(=O)Nc1cc(-n2c(=O)ccc3cnc4ccc(-c5ccc(NS(C)(=O)=O)cc5)cc4c32)ccc1C`, the % of control in assay [3] (at 1 µM), in [3] (at 10 µM), in [4] (at 1 µM) and in assay [4] (at 10 µM) was 100% throughout.
As for `CNCCN1CCC(c2cc(CN(C)C(=O)c3cccc(Oc4ccccc4)c3)ccn2)CC1`, the % of growth rate in assay [5] is -19.5%.
With `CC[C@@H]1[C@H](F)C(=O)N[C@@H]1COc1nccc2cc(C(N)=O)c(OC)cc12` [ZIMLOVISERTIB], the % of inhibition in [6] (at 0.01 µM) is 11.3%; in [6] (at 0.04 µM) it was 2.1%; in [6] (at 0.2 µM) it was 3.4%; in [6] (at 1 µM) it was 5.1%; in assay [6] (at 5 µM), -3.4%.
As to `N#Cc1cccc(-c2c[nH]c3ncnc(N4CCOCC4)c23)c1`, the values for the % of control in assay [7] and in assay [8] were 54% and 100%, respectively.
In turn, `CN1Cc2nccc(-c3cn(C)nc3-c3ccc(F)cc3)c2C1=O` had a pIC50 in assay [9] of 5.00.
Molecule `O[C@H]1CC[C@H](Nc2ncc3nc(Nc4c(F)cc(F)cc4F)n([C@H]4CCOC4)c3n2)CC1` had a % of control in assay [10] of 57%.
